# Test system: HT-1080 cells
# Assay: HT-1080 cell viability assay (ferroptosis induced by RSL3, Cell Titer-Glo)
# Assay type: cell-based
# Conditions: Homo sapiens, HT-1080, 20 h, ferroptosis inducer RSL3, 20 hours, ferroptosis inhibitory activity, Table 2
# Procedure, shortened: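 Cells seeded overnight, then co-treated with RSL3 and compound (3-fold, 10-point dilution, top 1.1 μM) for 20 hours. Viability by CellTiter-Glo luminescence, normalized to untreated controls; EC50 from sigmoidal non-linear regression.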
row,Structure (SMILES),EC50 [µM]
1,"CC(C)(C)c1ccc(NC2CCC(N)(C(N)=O)CC2)cc1 (centres unmarked) [Compound 212, 1-amino-4-((4-(tert-butyl)phenyl)amino)cyclohexane-1-carboxamide]",1 to 10
2,"Cc1cc(C)c(NC2CCC(N)CC2)c(C)c1 (centres unmarked) [Compound 219, N1-mesitylcyclohexane-1,4-diamine]",1 to 10
3,"NC1CCC(Nc2ccc(CC(F)(F)F)cc2)CC1 (centres unmarked) [Compound 223, N1-(4-(2,2,2-trifluoroethyl)phenyl)cyclohexane-1,4-diamine]",1 to 10
4,"CC(C)(CN1CCCC1)Nc1ccc(C(C)(C)C)cc1 [Compound 227, 4-(tert-butyl)-N-(2-methyl-1-(pyrrolidin-1-yl)propan-2-yl)aniline]",1 to 10
5,CC(C)(CN)Nc1ccc(C(C)(C)C)cc1 [Compound 229],1 to 10
6,"CC(C)(C)c1ccc(NC(CCO)CCO)cc1 [Compound 234, 3-((4-(tert-butyl)phenyl)amino) pentane-1,5-diol]",1 to 10
7,"CNCC1CC(Nc2ccc(C(C)(C)C)cc2)C1 (centres unmarked) [Compound 237, 4-(tert-butyl)-N-(3-((methylamino)methyl)cyclobutyl)aniline]",1 to 10
8,"CN1CCN(CC(=O)N2CCC(Nc3ccc(C(C)(C)C)cc3)CC2)C(=O)C1 [Compound 245, 1-(2-(4-((4-(tert-butyl)phenyl)amino)piperidin-1-yl)-2-oxoethyl)-4-methylpiperazin-2-one]",1 to 10
9,"CC1(C)CCN(CCNc2ccc(C(C)(C)C)cc2)CC1 [Compound 246, 4-(tert-butyl)-N-(2-(4,4-dimethylpiperidin-1-yl)ethyl)aniline]",0.1 to 1
10,"CC1(C)CCC(c2ccc(NC3CCC(NC(N)=O)CC3)cc2)CC1 (centres unmarked) [Compound 248, 1-(4-((4-(4,4-dimethylcyclohexyl)phenyl)amino)cyclohexyl)urea]",0.1 to 1
11,"COCCCCOc1cc(NC2CCC(N)CC2)ccc1C(C)(C)C (centres unmarked) [Compound 254, N1-(4-(tert-butyl)-3-(4-methoxybutoxy)phenyl)cyclohexane-1,4-diamine]",0.0001 to 0.1
12,"CC(C)(C)c1ccc(NC2CCC(O)C(O)C2)cc1 (centres unmarked) [Compound 255, 4-((4-(tert-butyl)phenyl)amino)cyclohexane-1,2-diol]",1 to 10
13,"CCOCCN(CCCCOC)CCNc1ccc(C(C)(C)C)cc1 [Compound 256, N1-(4-(tert-butyl)phenyl)-N2-(2-ethoxyethyl)-N2-(4-methoxybutyl) ethane-1,2-diamine]",1 to 10
14,"CC(C)(C)c1ccc(NC2CCC(C[N+](C)(C)C)CC2)cc1 (centres unmarked) [Compound 258, 1-(4-((4-(tert-butyl)phenyl)amino)cyclohexyl)-N,N,N-trimethylmethanaminium]",1 to 10
15,CC(C)(C)c1ccc(NC2CCC(NS(N)(=O)=O)CC2)cc1 (centres unmarked) [Compound 259A],0.1 to 1
16,"CC1(C)CCC(c2ccc(NC3CCS(=O)(=O)CC3)cc2)CC1 [Compound 261, 4-((4-(4,4-dimethylcyclohexyl)phenyl)amino)tetrahydro-2H-thiopyran 1,1-dioxide]",0.1 to 1
17,"CCOCCCc1ccc(NC2CCC(N)CC2)cc1 (centres unmarked) [Compound 262, (1s,4s)-N1-(4-(3-ethoxypropyl)phenyl)cyclohexane-1,4-diamine]",0.1 to 1
18,"CNCC1CCC(Nc2ccc(C(C)(C)C)cc2)C1 (centres unmarked) [Compound 263, 4-(tert-butyl)-N-(3-((methylamino)methyl)cyclopentyl)aniline]",0.1 to 1
19,"CC(C)(C)c1ccc(NC2CCC(NC(N)=O)CC2)cc1 (centres unmarked) [Compound 266A, 1-(4-((4-(tert-butyl)phenyl)amino)cyclohexyl)urea]",0.1 to 1
20,"CC(C)(C)c1ccc(NC2CCC(NCCCN)CC2)cc1 (centres unmarked) [Compound 267, 1-N-(3-aminopropyl)-4-N-(4-(tert-butyl)phenyl)cyclohexane-1,4-diamine]",1 to 10
21,"CC1CCC(Nc2ccc(C3CCCCC3)cc2)CC1 (centres unmarked) [Compound 269, 4-cyclohexyl-N-(4-methylcyclohexyl)aniline]",0.1 to 1
22,"CC(C)(C)c1ccc(NC2CCC(N)(CN)CC2)cc1 (centres unmarked) [Compound 270, 1-(aminomethyl)-N4-(4-(tert-butyl)phenyl)cyclohexane-1,4-diamine]",0.1 to 1

# Next, values leading:
row,EC50 [µM],Structure (SMILES)
1,0.0001 to 0.1,"C[C@@H](O)[C@H](N)C(=O)NC1CCC(Nc2ccc(C(C)(C)C)cc2)CC1 (stereo partly drawn) [Compound 214, (2S, 3R)-2-amino-N-(4-((4-(tert-butyl)phenyl)amino)cyclohexyl)-3-hydroxybutanamide]"
2,0.0001 to 0.1,"CC(C)(C)c1ccc(NC2CCC(NC(=O)C3CNCCN3)CC2)cc1 (centres unmarked) [Compound 215, N-(4-((4-(tert-butyl)phenyl)amino)cyclohexyl) piperazine-2-carboxamide]"
3,0.0001 to 0.1,"Cc1cc(NC2CCC(N)CC2)ccc1C(C)(C)C (centres unmarked) [Compound 217, N1-(4-(tert-butyl)-3-methylphenyl)cyclohexane-1,4-diamine]"
4,0.1 to 1,"CC(C)(C)c1ccc(NC2CCC(N)CC2)cc1C#N (centres unmarked) [Compound 218, 5-((4-aminocyclohexyl)amino)-2-(tert-butyl)benzonitrile]"
5,0.0001 to 0.1,"CC(C)(C)c1ccc(-c2ccc(NC3CCC(N)CC3)cc2)cc1 (centres unmarked) [Compound 220, N1-(4′-(tert-butyl)-[1,l′-biphenyl]-4-yl)cyclohexane-1,4-diamine]"
6,0.0001 to 0.1,"NC1CCC(Nc2ccc3ccccc3c2)CC1 (centres unmarked) [Compound 221, N1-(naphthalen-2-yl)cyclohexane-1,4-diamine]"
7,0.1 to 1,"CC(C)(C)c1ccc(NCCOCCN)cc1 [Compound 224, N-(2-(2-aminoethoxy)ethyl)-4-(tert-butyl)aniline]"
8,0.0001 to 0.1,"CC1(C)CCC(c2ccc(NCCCCN)cc2)CC1 [Compound 225, N1-(4-(4,4-dimethylcyclohexyl)phenyl) butane-1,4-diamine]"
9,0.0001 to 0.1,"CC(C)(C)c1ccc(NC2CCC(NCCO)CC2)cc1 (centres unmarked) [Compound 230, 2-((4-((4-(tert-butyl)phenyl)amino)cyclohexyl)amino)ethan-1-ol]"
10,0.1 to 1,CC1CC(Nc2ccc(C(C)(C)C)cc2)CCC1O (centres unmarked) [Compound 233A]
11,0.0001 to 0.1,"NCC1CCC(Nc2ccc3c(c2)CCC3)CC1 (centres unmarked) [Compound 235, N-(4-(aminomethyl)cyclohexyl)-2,3-dihydro-1H-inden-5-amine]"
12,0.0001 to 0.1,"NC1CCC(Nc2ccc3c(c2)CCCC3)CC1 (centres unmarked) [Compound 236, N1-(5,6,7,8-tetrahydronaphthalen-2-yl)cyclohexane-1,4-diamine]"
13,0.0001 to 0.1,"NC1CCC(Nc2cccc3ccccc23)CC1 (centres unmarked) [Compound 238, N1-(naphthalen-1-yl)cyclohexane-1,4-diamine]"
14,0.0001 to 0.1,"NC1CCC(Nc2ccc(Oc3ccccc3)cc2)CC1 (centres unmarked) [Compound 239, N1-(4-phenoxyphenyl)cyclohexane-1,4-diamine]"
15,0.1 to 1,"Cc1ccc(NC2CCC(N)CC2)cc1C (centres unmarked) [Compound 240, N1-(3,4-dimethylphenyl)cyclohexane-1,4-diamine]"
16,0.0001 to 0.1,"CC(C)(C)c1ccc(NC2CCC(CN)C2)cc1 (centres unmarked) [Compound 241, N-(3-(aminomethyl)cyclopentyl)-4-(tert-butyl)aniline]"
17,0.0001 to 0.1,"CC(C)(C)c1ccc(NC2CCC(N)CC2)cc1F (centres unmarked) [Compound 242A, N1-(4-(tert-butyl)-3-fluorophenyl)cyclohexane-1,4-diamine 2,2,2-trifluoroacetate]"
18,0.0001 to 0.1,CC1(C)CCC(c2ccc(NC3CCC(CCNC(N)=O)CC3)cc2)CC1 (centres unmarked) [Compound 243]
19,0.0001 to 0.1,"CC1(C)CCC(c2ccc(NC3CCC(CCNC(=O)[C@H]4CC(=O)NC(=O)N4)CC3)cc2)CC1 (stereo partly drawn) [Compound 244A, (R)—N-(2-(4-((4-(4,4-dimethylcyclohexyl)phenyl)amino)cyclohexyl)ethyl)-2,6-dioxohexahydro pyrimidine-4-carboxamide]"
20,0.0001 to 0.1,"CN(C)CCCN1CCC(Nc2ccc(C3CCC(C)(C)CC3)cc2)CC1=O (centres unmarked) [Compound 247, 1-(3-(dimethylamino)propyl)-4-((4-(4,4-dimethylcyclohexyl)phenyl)amino)piperidin-2-one]"
21,0.0001 to 0.1,"CC1(C)CCC(c2ccc(NC3CCC(NS(N)(=O)=O)CC3)cc2)CC1 (centres unmarked) [Compound 249, N-(4-{[4-(4,4-dimethylcyclohexyl)phenyl]amino}cyclohexyl)aminosulfonamide]"
22,0.0001 to 0.1,"CC1CC(Nc2ccc(C(C)(C)C)cc2)CCC1N (centres unmarked) [Compound 250A, N1-(4-(tert-butyl)phenyl)-3-methylcyclohexane-1,4-diamine]"
23,0.0001 to 0.1,"NC1CCC(Nc2ccc(C3CCC(F)(F)CC3)cc2)CC1 (centres unmarked) [Compound 251A, N1-(4-(4.4-difluorocyclohexyl)phenyl)cyclohexane-1,4-diamine]"
24,0.0001 to 0.1,"CCCCCCc1cc(NC2CCC(N)CC2)ccc1C(C)(C)C (centres unmarked) [Compound 253A, N1-(4-(tert-butyl)-3-hexylphenyl)cyclohexane-1,4-diamine]"
25,0.0001 to 0.1,CN(C)CCNC1CCC(Nc2ccc(C(C)(C)C)cc2)CC1 (centres unmarked) [Compound 257]
26,0.0001 to 0.1,"CC(C)(C)c1ccc(NC[C@H]2CC[C@H](N)CC2)cc1 [Compound 260, N-(((1r,4r)-4-aminocyclohexyl)methyl)-4-(tert-butyl)aniline]"
27,0.0001 to 0.1,"NCCC1CCC(Nc2ccc3c(c2)CCC3)CC1 (centres unmarked) [Compound 264, N-(4-(2-aminoethyl)cyclohexyl)-2,3-dihydro-1H-inden-5-amine]"
28,0.0001 to 0.1,"CC1(C)CCC(C)(C)c2cc(NC3CCC(N)CC3)ccc21 (centres unmarked) [Compound 265, N1-(5,5,8,8-tetramethyl-5,6,7,8-tetrahydronaphthalen-2-yl)cyclohexane-1,4-diamine]"
29,0.0001 to 0.1,"CC(C)(C)c1ccc(NC2CCC(NCCN)CC2)cc1 (centres unmarked) [Compound 268, 1-N-(2-aminoethyl)-N4-(4-(tert-butyl)phenyl)cyclohexane-1,4-diamine]"

# Same assay, conditions: Homo sapiens, ferroptosis inducer RSL3, 20 hours, ferroptosis inhibitory activity, Table 2
row,Structure (SMILES),EC50 [µM]
1,"CN1CCN(CC(=O)N2CCC(Nc3ccc(C(C)(C)C)cc3)CC2)CC1=O [Compound 222, 4-(2-{4-[(4-tert-butylphenyl)amino]piperidin-1-yl}-2-oxoethyl)-1-methylpiperazin-2-one]",1 to 10
2,"CC1(C)CCC(c2ccc(NC3CCC(C(C)(C)N)CC3)cc2)CC1 (centres unmarked) [Compound 226, N-(4-(2-aminopropan-2-yl)cyclohexyl)-4-(4,4-dimethylcyclohexyl)aniline]",0.0001 to 0.1
